Laboratory results as given in PubChem BioAssay AID977613 (Broad Institute, 2014).
Calls of active or inactive are those of the source. How the calls were made is not given here.

Tested on: Broad 7084-01 inhibitor HTS, set 2
Test: inhibitors in Broad screen 7084-01, set 2 (AID 977613);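 further: host cells are infected with parasite promastigotes that become internalized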

With `CN(C)C(=O)[C@H]1[C@H](CO)[C@H]2Cn3c(ccc(-c4cncnc4)c3=O)[C@H]2N1Cc1cc(F)ccc1F` as the compound, how does the active concentration read?
The active concentration was > 10 µM (inactive).

With `CCCN1[C@H](C(=O)NCCCN2CCOCC2)[C@@H](CO)[C@@H]2Cn3c(ccc(-c4ccncc4)c3=O)[C@@H]21` as the compound, how does the active concentration read?
The active concentration was > 10 µM (inactive).

How did the active concentration turn out when `O=C(NC1CCCCC1)[C@@H]1N[C@@H]2c3ccc(-c4cccc(F)c4)c(=O)n3C[C@@H]2[C@H]1CO` was run?
Its active concentration is > 10 µM (inactive).

Which active concentration does the source give for `CC=Cc1ccc2n(c1=O)C[C@@H]1[C@@H](CO)[C@H](C(=O)NCC)N(C(=O)CC3CC3)[C@H]21` (mixture of isomers) here?
The active concentration was > 10 µM (inactive).

`CCNC(=O)Nc1ccc2c(c1)C(=O)N(C)[C@H]1CC[C@@H](CC(=O)N[C@@H](C)c3ccccc3)O[C@H]1CO2` was tested. Which active concentration did it give?
The active concentration was > 10 µM (inactive).

For `COc1cccc(S(=O)(=O)N2CC3(CCN(C)CC3)c3c([nH]c4cc(OC)ccc34)[C@@H]2CO)c1`, which active concentration is on record?
The active concentration was > 10 µM (inactive).

Which active concentration does the source give for `O=C(CC1CC1)N1[C@@H]2CN(S(=O)(=O)c3ccccc3F)c3ccccc3[C@@H]2[C@@H]1CO` here?
The active concentration was > 10 µM (inactive).

`CC(=O)N1CCCCN2[C@@H](CO)[C@H](c3ccc(-c4ccccc4)cc3)[C@@H]2C1` was tested. Which active concentration did it give?
Its active concentration is > 10 µM (inactive).

With `O=C(C[C@@H]1CC[C@H]2[C@@H](COC[C@@H](O)CN2C(=O)Cc2ccccc2)O1)NC1CCCC1` as the compound, how does the active concentration read?
Its active concentration is > 10 µM (inactive).

For `CN1[C@H](CO)[C@H]2c3ccccc3N(C(=O)Nc3ccccc3F)C[C@H]21`, which active concentration is on record?
The active concentration was > 10 µM (inactive).

Which active concentration does the source give for `O=C(CN1CCOCC1)N1CC2(C1)[C@@H](c1ccccc1)[C@@H](CO)N2Cc1ccc(F)cc1` here?
Its active concentration is > 10 µM (inactive).

With `CN(C)C(=O)C[C@@H]1CC[C@H]2[C@@H](COC[C@H](O)CN2C(=O)C2CC2)O1` as the compound, how does the active concentration read?
Its active concentration is > 10 µM (inactive).

For `Cc1cccc(S(=O)(=O)N2CC[C@@H]3[C@H]2c2cc(C#Cc4ccccc4F)ccc2N[C@@H]3CO)c1`, which active concentration is on record?
The active concentration was > 10 µM (inactive).

Which active concentration does the source give for `COc1ccc2c3c([nH]c2c1)[C@H](CO)N(S(=O)(=O)c1ccc(C)cc1)CC31CCN(Cc2nccs2)CC1` here?
Its active concentration is > 10 µM (inactive).

How did the active concentration turn out when `O=S(=O)(c1cccs1)N1CCCCN2[C@H](C1)[C@H](c1ccc(/C=C/c3ccccc3)cc1)[C@@H]2CO` was run?
The active concentration was > 10 µM (inactive).

How did the active concentration turn out when `O=C1CN(S(=O)(=O)Cc2ccccc2)C[C@@H]2[C@@H](c3ccc(C#Cc4ccccc4)cc3)[C@@H](CO)N12` was run?
The active concentration was > 10 µM (inactive).

Which active concentration does the source give for `COc1ccc2c3c([nH]c2c1)[C@@H](CO)N(S(=O)(=O)c1ccc(C)cc1)CC31CCN(C(=O)Cc2cccnc2)CC1` here?
Its active concentration is > 10 µM (inactive).

`O=C(C[C@@H]1CC[C@H]2[C@@H](COC[C@@H](O)CN2Cc2cc(F)ccc2F)O1)NCc1ccc(F)cc1` was tested. Which active concentration did it give?
The active concentration was > 10 µM (inactive).

`OC[C@@H]1[C@@H](c2ccccc2)C2(CN(Cc3nccs3)C2)N1CCC(F)(F)F` was tested. Which active concentration did it give?
Its active concentration is > 10 µM (inactive).

How did the active concentration turn out when `Cc1ccccc1S(=O)(=O)N1CC[C@@H]2[C@H]1c1cc(C#Cc3ccccc3)ccc1N[C@@H]2CO` was run?
Its active concentration is > 10 µM (inactive).

With `CN(C)C(=O)C[C@H]1CC[C@H]2[C@@H](COC[C@H](O)CN2CC2CCCC2)O1` as the compound, how does the active concentration read?
The active concentration was > 10 µM (inactive).

Which active concentration does the source give for `COCC(=O)N1CC2(C1)CN(Cc1nccs1)[C@@H](CO)c1c2c2ccc(OC)cc2n1C` here?
Its active concentration is > 10 µM (inactive).

Which active concentration does the source give for `CN1C[C@H](O)COC[C@H]2O[C@H](CC(=O)NC3CCCC3)CC[C@@H]21` here?
Its active concentration is > 10 µM (inactive).

`CC(C)NC(=O)N1[C@H](CO)[C@@H](c2ccccc2-c2ccc(F)cc2)[C@@H]1C#N` was tested. Which active concentration did it give?
Its active concentration is > 10 µM (inactive).

How did the active concentration turn out when `O=C(c1ccccc1)N1CC(=O)N2[C@H](CO)[C@H](c3ccc(-c4ccccc4)cc3)[C@@H]2C1` was run?
The active concentration was > 10 µM (inactive).

How did the active concentration turn out when `Cc1ccccc1S(=O)(=O)N1CCCCN2[C@H](C1)[C@@H](c1ccc(C#CCN(C)C)cc1)[C@@H]2CO` was run?
Its active concentration is > 10 µM (inactive).

`CCS(=O)(=O)N1CC2(CN(CC3CCOCC3)[C@@H](CO)c3c2c2ccc(OC)cc2n3C)C1` was tested. Which active concentration did it give?
The active concentration was > 10 µM (inactive).
